Assay results published in patent US8552006B2, “Modulators of cystic fibrosis transmembrane conductance regulator” (Vertex Pharmaceuticals Incorporated, priority 2007, dated 2013).

Target: T1, ΔF508-CFTR (Homo sapiens, UniProt P13569, DEL508-508)
T1 construct: expressed in transfected cells
Assay: Membrane potential optical assay for potentiators of ΔF508-CFTR (double-addition HTS, FLIPR III)
Assay type: cell-based
Settings: for Emax: 100% efficacy is the maximum response obtained with 4-methyl-2-(5-phenyl-1H-pyrazol-3-yl)phenol; for EC50: temperature-corrected ΔF508 CFTR NIH 3T3 cells, potentiation with forskolin activation
Description: Membrane Potential Optical Methods for Assaying ΔF508-CFTR Modulation Properties of Compounds
The assay utilizes fluorescent voltage sensing dyes to measure changes in membrane potential using a fluorescent plate reader (e.g., FLIPR III, Molecular Devices, Inc.) as a readout for increase in functional ΔF508-CFTR in NIH 3T3 cells. The driving force for the response is the creation of a chloride ion gradient in conjunction with channel activation by a single liquid addition step after the cells have previously been treated with compounds and subsequently loaded with a voltage sensing dye.
To identify potentiators of ΔF508-CFTR, a double-addition HTS assay format was developed. This HTS assay utilizes fluorescent voltage sensing dyes to measure changes in membrane potential on the FLIPR III as a measurement for increase in gating (conductance) of ΔF508 CFTR in temperature-corrected ΔF508 CFTR NIH 3T3 cells. The driving force for the response is a Cl^− ion gradient in conjunction with channel activation with forskolin in a single liquid addition step using a fluoresecent plate reader such as FLIPR III after the cells have previously been treated with potentiator compounds (or DMSO vehicle control) and subsequently loaded with a redistribution dye.
Bath Solution #1: (in mM) NaCl 160, KCl 4.5, CaCl2 2, MgCl2 1, HEPES 10, pH 7.4 with NaOH.
Chloride-Free Bath Solution: Chloride Salts in Bath Solution #1 are Substituted with Gluconate Salts.
NIH3T3 mouse fibroblasts stably expressing ΔF508-CFTR are used for optical measurements of membrane potential. The cells are maintained at 37° C. in 5% CO2 and 90% humidity in Dulbecco's modified Eagle's medium supplemented with 2 mM glutamine, 10% fetal bovine serum, 1×NEAA, β-ME, 1× pen/strep, and 25 mM HEPES in 175 cm^2 culture flasks. For all optical assays, the cells were seeded at ˜20,000/well in 384-well matrigel-coated plates and cultured for 2 hrs at 37° C. before culturing at 27° C. for 24 hrs. for the potentiator assay. For the correction assays, the cells are cultured at 27° C. or 37° C. with and without compounds for 16-24 hours. Electrophysiological Assays for assaying ΔF508-CFTR modulation properties of compounds.

T1 sequence (P13569 with tags, fused parts or gaps DEL508-508): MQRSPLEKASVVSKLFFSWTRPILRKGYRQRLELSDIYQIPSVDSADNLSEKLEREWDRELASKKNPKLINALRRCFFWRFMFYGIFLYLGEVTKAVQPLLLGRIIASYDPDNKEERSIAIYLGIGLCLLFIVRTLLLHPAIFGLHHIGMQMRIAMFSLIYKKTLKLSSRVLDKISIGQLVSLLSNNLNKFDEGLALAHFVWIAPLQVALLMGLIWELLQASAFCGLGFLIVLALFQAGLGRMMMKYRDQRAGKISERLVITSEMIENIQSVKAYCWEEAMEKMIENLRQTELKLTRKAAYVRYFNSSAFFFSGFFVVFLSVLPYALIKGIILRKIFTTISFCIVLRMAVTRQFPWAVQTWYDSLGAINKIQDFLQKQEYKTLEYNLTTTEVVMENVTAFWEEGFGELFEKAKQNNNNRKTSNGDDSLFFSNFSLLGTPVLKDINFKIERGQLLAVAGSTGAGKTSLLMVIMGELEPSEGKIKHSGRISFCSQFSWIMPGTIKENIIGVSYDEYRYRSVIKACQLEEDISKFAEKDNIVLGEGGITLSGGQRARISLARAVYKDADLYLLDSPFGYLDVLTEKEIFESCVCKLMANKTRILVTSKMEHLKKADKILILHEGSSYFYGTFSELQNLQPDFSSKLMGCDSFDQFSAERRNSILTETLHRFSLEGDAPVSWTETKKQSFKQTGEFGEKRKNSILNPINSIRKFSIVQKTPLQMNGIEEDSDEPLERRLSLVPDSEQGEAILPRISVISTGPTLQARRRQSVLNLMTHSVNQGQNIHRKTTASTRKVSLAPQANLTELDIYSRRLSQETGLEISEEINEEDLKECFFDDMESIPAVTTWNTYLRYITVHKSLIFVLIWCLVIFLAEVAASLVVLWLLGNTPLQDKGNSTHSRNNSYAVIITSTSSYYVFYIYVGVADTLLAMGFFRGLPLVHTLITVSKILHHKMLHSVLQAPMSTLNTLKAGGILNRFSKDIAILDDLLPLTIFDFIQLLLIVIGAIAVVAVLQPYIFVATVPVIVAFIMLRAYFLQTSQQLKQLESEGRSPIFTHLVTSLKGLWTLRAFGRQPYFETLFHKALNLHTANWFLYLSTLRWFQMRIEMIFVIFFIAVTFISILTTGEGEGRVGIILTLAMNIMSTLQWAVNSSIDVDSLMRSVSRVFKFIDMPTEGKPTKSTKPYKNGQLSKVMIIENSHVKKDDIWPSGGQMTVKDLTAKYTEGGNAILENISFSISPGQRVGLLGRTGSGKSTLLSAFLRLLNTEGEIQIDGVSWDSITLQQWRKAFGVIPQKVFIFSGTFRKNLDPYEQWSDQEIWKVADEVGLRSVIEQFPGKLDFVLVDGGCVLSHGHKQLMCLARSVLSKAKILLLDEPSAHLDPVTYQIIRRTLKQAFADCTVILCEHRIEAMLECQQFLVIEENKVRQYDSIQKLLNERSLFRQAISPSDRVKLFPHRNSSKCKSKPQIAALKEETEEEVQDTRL

Emax [%] | EC50 [µM] | SMILES
25 to 100 | < 5 | Cc1cc2[nH]cc(C(=O)Nc3ccc(N4CCC(C)(C)C4)cc3C(F)(F)F)c(=O)n2c1 [Compound 3]
25 to 100 | 5 to 20 | CCc1cc2[nH]cc(C(=O)Nc3cc(O)c(C4(C)CCCCC4)cc3F)c(=O)n2c1 [Compound 12]
25 to 100 | < 5 | Cc1cc2[nH]cc(C(=O)Nc3ccc4c(C(F)(F)F)c[nH]c4c3)c(=O)n2c1 [Compound 17]
25 to 100 | < 5 | CCc1cc2[nH]cc(C(=O)Nc3ccc4c(C(C)(C)C)c[nH]c4c3)c(=O)n2c1 [Compound 9]
25 to 100 | < 5 | Cc1cc2[nH]cc(C(=O)Nc3cc(O)c(C(C)(C)C)cc3C(C)(C)C)c(=O)n2n1 [Compound 1]
25 to 100 | 5 to 20 | O=C(Nc1cc2[nH]ccc2cc1C(F)(F)F)c1c[nH]c2ccnn2c1=O [Compound 8]
25 to 100 | < 5 | CC(C)(C)c1cc(C(C)(C)C)c(NC(=O)c2c[nH]c3ccnn3c2=O)cc1O [Compound 5, N-(2,4-di-tert-butyl-5-hydroxyphenyl)-7-oxo-4,7-dihydropyrazolo[1,5-a]pyrimidine-6-carboxamide]
25 to 100 | < 5 | Cc1cc2[nH]cc(C(=O)Nc3cc(O)c(C4CCCC4)cc3C#N)c(=O)n2c1 [Compound 19]
25 to 100 | < 5 | Cc1cc2[nH]cc(C(=O)Nc3cc4[nH]ccc4cc3C(C)(C)C)c(=O)n2n1 [Compound 4]
25 to 100 | 5 to 20 | O=C(Nc1ccc(N2CCCC2)cc1C(F)(F)F)c1c[nH]c2ccnn2c1=O [Compound 13]
> 100 | < 5 | CC(C)(C)c1c[nH]c2cc(NC(=O)c3c[nH]c4ccnn4c3=O)ccc12 [Compound 2]
25 to 100 | > 20 | Cc1cc2[nH]cc(C(=O)Nc3ccc4cc[nH]c4c3)c(=O)n2n1 [Compound 10]
25 to 100 | < 5 | Cc1cc2[nH]cc(C(=O)Nc3cc(O)c(C4CCCC4)cc3C(F)(F)F)c(=O)n2c1 [Compound 16]
25 to 100 | < 5 | CCc1cc2[nH]cc(C(=O)Nc3cc(O)c(C(C)(C)C)cc3C(C)(C)C)c(=O)n2c1 [Compound 14, N-(2,4-di-tert-butyl-5-hydroxyphenyl)-7-ethyl-4-oxo-1,4-dihydropyrrolo[1,2-a]pyrimidine-3-carboxamide]
25 to 100 | < 5 | CCc1cc2[nH]cc(C(=O)Nc3cc4[nH]ccc4cc3C(F)(F)F)c(=O)n2c1 [Compound 11]
25 to 100 | < 5 | CC(C)(C)c1cc2cc[nH]c2cc1NC(=O)c1c[nH]c2ccnn2c1=O [Compound 6]
25 to 100 | < 5 | Cc1cc2[nH]cc(C(=O)Nc3cc(O)c(C4CCCC4)cc3C)c(=O)n2c1 [Compound 18]
25 to 100 | < 5 | Cc1cc2[nH]cc(C(=O)Nc3cc(O)c(C4(C)CCCCC4)cc3F)c(=O)n2c1 [Compound 15]
25 to 100 | < 5 | CCc1cc2[nH]cc(C(=O)Nc3ccc4c(C(F)(F)F)c[nH]c4c3)c(=O)n2c1 [Compound 7]
